# Positions of bridges follow the written chain, without caps; N, C: chain ends. Non-standard residues stand in square brackets, D forms with d. Residues, ends and D or L forms follow the SMILES beside them. Ala(thiazol-5-yl) = N[C@@H](Cc1cncs1)C(=O)O; NMeNle = CCCC[C@H](NC)C(=O)O; NMeA = CN[C@@H](C)C(=O)O; Nle = CCCC[C@H](N)C(=O)O; Orn = NCCC[C@H](N)C(=O)O; Dab = NCC[C@H](N)C(=O)O; Sar = CNCC(=O)O
# Columns and labels:
# [1] = target: T1, LK35.2-hPD-L1 cells / PE-labeled PD-1-Ig (Homo sapiens, UniProt Q9NZQ7); assay: LK35.2-hPD-L1 cell binding high-content screening assay; type: cell-based; conditions: cluster symbol; cell line of CBA not given (LK35.2-hPD-L1 or 293T-hPD-L1); read-out: CBA IC50 cluster
# T1 construct: expressed in transfected cells; host or cells: LK35.2 mouse B cell line
# How it was run: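 Compound effect on PD-1/PD-L1 binding is measured by imaging cell-associated phycoerythrin signal. Human PD-1-Ig (PE on Ig tag, 1 nM final) is applied with compound to a murine B cell line overexpressing human PD-L1 for 1 h at 37 °C in serum-containing RPMI.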
# Human PD-L1/PD-1 = target: T2, Human PD-L1/PD-1 (Homo sapiens, UniProt Q9NZQ7); assay: HTRF PD-1-Ig/PD-L1-His binding assay (human PD-L1); conditions: cluster symbol; read-out: HTRF IC50 cluster
# T2 construct: made in house; host or cells: HEK293T
# How it was run: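 Soluble PD-1-Ig binding to PD-L1-His measured by HTRF in dPBS with 0.1% BSA and 0.05% Tween-20. Detection used europium cryptate anti-Ig antibody (1 nM final) and APC anti-His antibody (20 nM final) added on top of the binding reaction.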
# T1 sequence (Q9NZQ7 19-290): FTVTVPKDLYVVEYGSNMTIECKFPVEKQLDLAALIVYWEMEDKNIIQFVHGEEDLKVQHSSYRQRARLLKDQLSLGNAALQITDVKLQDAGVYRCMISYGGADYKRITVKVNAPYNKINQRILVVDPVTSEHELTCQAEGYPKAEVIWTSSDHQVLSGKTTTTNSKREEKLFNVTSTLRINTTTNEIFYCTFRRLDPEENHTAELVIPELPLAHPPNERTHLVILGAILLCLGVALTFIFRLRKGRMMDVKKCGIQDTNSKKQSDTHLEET
# T2 sequence (Q9NZQ7 with tags, fused parts or gaps): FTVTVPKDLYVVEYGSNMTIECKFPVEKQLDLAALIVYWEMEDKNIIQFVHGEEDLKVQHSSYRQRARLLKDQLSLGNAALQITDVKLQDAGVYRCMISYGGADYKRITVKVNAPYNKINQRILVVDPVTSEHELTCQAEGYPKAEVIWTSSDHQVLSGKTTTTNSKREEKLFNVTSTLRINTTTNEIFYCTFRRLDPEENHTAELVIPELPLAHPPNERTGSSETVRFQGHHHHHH
IC50 [1],IC50 (Human PD-L1/PD-1),Compound
4.78 to 72.9 nM,6.76 to 30.3 nM,CCCC[C@H]1C(=O)N(C)[C@@H](CCCC)C(=O)N[C@@H](CCCNC(=N)N)C(=O)N[C@H](C(=O)NCC(N)=O)CSCC(=O)N[C@@H](Cc2ccccc2)C(=O)N(C)[C@@H](C)C(=O)N[C@@H](CC(N)=O)C(=O)N2CCC[C@H]2C(=O)N[C@@H](CCN)C(=O)N[C@@H](CC(C)C)C(=O)N(C)CC(=O)N[C@@H](Cc2c[nH]c3ccccc23)C(=O)N[C@@H](CO)C(=O)N[C@@H](Cc2c[nH]c3ccccc23)C(=O)N1C [Example 1062] ({CH2CO}-F[NMeA]NP[Dab]L[Sar]WSW[NMeNle][NMeNle]RCG-NH2; thioether N-14)
> 74.3 nM,> 30.5 nM,CCCC[C@H]1C(=O)N(C)[C@@H](CCCC)C(=O)N[C@@H](CCCNC(=N)N)C(=O)N[C@H](C(=O)NCC(N)=O)CSCC(=O)N[C@@H](Cc2ccccc2)C(=O)N(C)[C@@H](C)C(=O)N[C@@H](CC(N)=O)C(=O)N2CCC[C@H]2C(=O)N[C@@H](CC(N)=O)C(=O)N[C@@H](CC(C)C)C(=O)N(C)CC(=O)N[C@@H](Cc2c[nH]c3ccccc23)C(=O)N[C@@H](CO)C(=O)N[C@@H](Cc2c[nH]c3ccccc23)C(=O)N1C [Example 1063] ({CH2CO}-F[NMeA]NPNL[Sar]WSW[NMeNle][NMeNle]RCG-NH2; thioether N-14)
> 74.3 nM,> 30.5 nM,CCCC[C@H]1C(=O)N(C)[C@@H](CCCC)C(=O)N[C@@H](CCCNC(=N)N)C(=O)N[C@H](C(=O)NCC(N)=O)CSCC(=O)N[C@@H](Cc2ccccc2)C(=O)N(C)[C@@H](C)C(=O)N[C@@H](CC(N)=O)C(=O)N2CCC[C@H]2C(=O)N[C@@H](CC(=O)O)C(=O)N[C@@H](CC(C)C)C(=O)N(C)CC(=O)N[C@@H](Cc2c[nH]c3ccccc23)C(=O)N[C@@H](CO)C(=O)N[C@@H](Cc2c[nH]c3ccccc23)C(=O)N1C [Example 1064] ({CH2CO}-F[NMeA]NPDL[Sar]WSW[NMeNle][NMeNle]RCG-NH2; thioether N-14)
> 74.3 nM,> 30.5 nM,CCCC[C@H]1C(=O)N(C)[C@@H](CCCC)C(=O)N[C@@H](CCCNC(=N)N)C(=O)N[C@H](C(=O)NCC(N)=O)CSCC(=O)N[C@@H](Cc2ccccc2)C(=O)N(C)[C@@H](C)C(=O)N[C@@H](CC(N)=O)C(=O)N2CCC[C@H]2C(=O)N[C@@H](Cc2cnc[nH]2)C(=O)N[C@@H](CC(C)C)C(=O)N(C)CC(=O)N[C@@H](Cc2c[nH]c3ccccc23)C(=O)N[C@H](CO)C(=O)N[C@@H](Cc2c[nH]c3ccccc23)C(=O)N1C [Example 1065] ({CH2CO}-F[NMeA]NPHL[Sar]W[dS]W[NMeNle][NMeNle]RCG-NH2; thioether N-14)
> 74.3 nM,> 30.5 nM,CCCC[C@H]1C(=O)N(C)[C@@H](CCCC)C(=O)N[C@@H](CCCNC(=N)N)C(=O)N[C@H](C(=O)NCC(N)=O)CSCC(=O)N[C@@H](Cc2ccccc2)C(=O)N(C)[C@@H](C)C(=O)N[C@@H](CC(N)=O)C(=O)N2CCC[C@H]2C(=O)N[C@@H](Cc2cncs2)C(=O)N[C@@H](CC(C)C)C(=O)N(C)CC(=O)N[C@@H](Cc2c[nH]c3ccccc23)C(=O)N[C@@H](CO)C(=O)N[C@@H](Cc2c[nH]c3ccccc23)C(=O)N1C [Example 1067] ({CH2CO}-F[NMeA]NP[Ala(thiazol-5-yl)]L[Sar]WSW[NMeNle][NMeNle]RCG-NH2; thioether N-14)
> 74.3 nM,> 30.5 nM,CCCC[C@H]1C(=O)N(C)[C@@H](CCCC)C(=O)N[C@@H](CCCNC(=N)N)C(=O)N[C@H](C(=O)NCC(N)=O)CSCC(=O)N[C@@H](Cc2ccccc2)C(=O)N(C)[C@@H](C)C(=O)N[C@@H](CC(N)=O)C(=O)N2CCC[C@H]2C(=O)N[C@@H](Cc2cnc[nH]2)C(=O)N[C@@H](CC(C)C)C(=O)N(C)CC(=O)N[C@@H](Cc2c[nH]c3ccccc23)C(=O)N[C@@H](Cc2cnc[nH]2)C(=O)N[C@@H](Cc2c[nH]c3ccccc23)C(=O)N1C [Example 1068] ({CH2CO}-F[NMeA]NPHL[Sar]WHW[NMeNle][NMeNle]RCG-NH2; thioether N-14)
4.78 to 72.9 nM,0.385 to 6.74 nM,CCCC[C@H]1C(=O)N(C)[C@@H](CCCC)C(=O)N[C@@H](CCCNC(=N)N)C(=O)N[C@H](C(=O)NCC(N)=O)CSCC(=O)N[C@@H](Cc2ccccc2)C(=O)N(C)[C@@H](C)C(=O)N[C@@H](CC(N)=O)C(=O)N2CCC[C@H]2C(=O)N[C@@H](Cc2cnc[nH]2)C(=O)N[C@@H](CC(C)C)C(=O)N(C)CC(=O)N[C@@H](Cc2c[nH]c3ccccc23)C(=O)N[C@@H](CCCCN)C(=O)N[C@@H](Cc2c[nH]c3ccccc23)C(=O)N1C [Example 1069] ({CH2CO}-F[NMeA]NPHL[Sar]WKW[NMeNle][NMeNle]RCG-NH2; thioether N-14)
4.78 to 72.9 nM,6.76 to 30.3 nM,CCCC[C@H]1C(=O)N(C)[C@@H](CCCC)C(=O)N[C@@H](CCCNC(=N)N)C(=O)N[C@H](C(=O)NCC(N)=O)CSCC(=O)N[C@@H](Cc2ccccc2)C(=O)N(C)[C@@H](C)C(=O)N[C@@H](CC(N)=O)C(=O)N2CCC[C@H]2C(=O)N[C@@H](Cc2cnc[nH]2)C(=O)N[C@@H](CC(C)C)C(=O)N(C)CC(=O)N[C@@H](Cc2c[nH]c3ccccc23)C(=O)N[C@@H](CCCN)C(=O)N[C@@H](Cc2c[nH]c3ccccc23)C(=O)N1C [Example 1070] ({CH2CO}-F[NMeA]NPHL[Sar]W[Orn]W[NMeNle][NMeNle]RCG-NH2; thioether N-14)
> 74.3 nM,> 30.5 nM,CCCC[C@@H]1NC(=O)[C@H](CCCC)N(C)C(=O)[C@H](CCCC)N(C)C(=O)[C@H](Cc2c[nH]c3ccccc23)NC(=O)[C@H](CO)NC(=O)[C@H](Cc2c[nH]c3ccccc23)NC(=O)CN(C)C(=O)[C@H](CC(C)C)NC(=O)[C@H](Cc2cnc[nH]2)NC(=O)[C@@H]2CCCN2C(=O)[C@H](CC(N)=O)NC(=O)[C@H](C)N(C)C(=O)[C@H](Cc2ccccc2)NC(=O)CSC[C@@H](C(=O)NCC(N)=O)NC1=O [Example 1071] ({CH2CO}-F[NMeA]NPHL[Sar]WSW[NMeNle][NMeNle][Nle]CG-NH2; thioether N-14)
> 74.3 nM,> 30.5 nM,CCCC[C@H]1C(=O)N(C)[C@@H](CCCC)C(=O)N[C@@H](CCCNC(=N)N)C(=O)N[C@@H](C(=O)NCC(N)=O)CSCC(=O)N[C@@H](Cc2cnc[nH]2)C(=O)N(C)[C@@H](C)C(=O)N[C@@H](CC(N)=O)C(=O)N2CCC[C@H]2C(=O)N[C@@H](Cc2cnc[nH]2)C(=O)N[C@@H](CC(C)C)C(=O)N(C)CC(=O)N[C@@H](Cc2c[nH]c3ccccc23)C(=O)N[C@@H](CO)C(=O)N[C@@H](Cc2c[nH]c3ccccc23)C(=O)N1C [Example 1072] ({CH2CO}-H[NMeA]NPHL[Sar]WSW[NMeNle][NMeNle]R[dC]G-NH2; thioether N-14)
> 74.3 nM,> 30.5 nM,CCCC[C@H]1C(=O)N(C)[C@@H](CCCC)C(=O)N[C@@H](CCCNC(=N)N)C(=O)N[C@H](C(=O)NCC(N)=O)CSCC(=O)N[C@@H](Cc2ccccc2)C(=O)N(C)[C@@H](C)C(=O)N[C@@H](CC(N)=O)C(=O)N2CCC[C@H]2C(=O)N[C@@H](Cc2cnc[nH]2)C(=O)N[C@@H](CC(C)C)C(=O)N(C)CC(=O)N[C@@H](Cc2c[nH]cn2)C(=O)N[C@@H](CO)C(=O)N[C@@H](Cc2c[nH]c3ccccc23)C(=O)N1C [Example 1073] ({CH2CO}-F[NMeA]NPHL[Sar]HSW[NMeNle][NMeNle]RCG-NH2; thioether N-14)
> 74.3 nM,> 30.5 nM,CCCC[C@H]1C(=O)N(C)[C@@H](CCCC)C(=O)N[C@@H](CCCNC(=N)N)C(=O)N[C@H](C(=O)NCC(N)=O)CSCC(=O)N[C@@H](Cc2ccccc2)C(=O)N(C)[C@@H](C)C(=O)N[C@@H](CC(N)=O)C(=O)N2CCC[C@H]2C(=O)N[C@@H](Cc2cnc[nH]2)C(=O)N[C@@H](CC(C)C)C(=O)N[C@@H](CCC(N)=O)C(=O)N[C@@H](Cc2c[nH]c3ccccc23)C(=O)N[C@@H](CO)C(=O)N[C@@H](Cc2c[nH]c3ccccc23)C(=O)N1C [Example 1074] ({CH2CO}-F[NMeA]NPHLQWSW[NMeNle][NMeNle]RCG-NH2; thioether N-14)
> 74.3 nM,> 30.5 nM,CCCC[C@H]1C(=O)N(C)[C@@H](CCCC)C(=O)N[C@@H](CCCNC(=N)N)C(=O)N[C@H](C(=O)NCC(N)=O)CSCC(=O)N[C@@H](Cc2ccccc2)C(=O)N(C)[C@@H](C)C(=O)N[C@@H](CC(N)=O)C(=O)N2CCC[C@H]2C(=O)N[C@@H](Cc2cnc[nH]2)C(=O)N[C@@H](CC(C)C)C(=O)N[C@@H](CC(N)=O)C(=O)N[C@@H](Cc2c[nH]c3ccccc23)C(=O)N[C@@H](CO)C(=O)N[C@@H](Cc2c[nH]c3ccccc23)C(=O)N1C [Example 1075] ({CH2CO}-F[NMeA]NPHLNWSW[NMeNle][NMeNle]RCG-NH2; thioether N-14)
4.78 to 72.9 nM,6.76 to 30.3 nM,CCCC[C@H]1C(=O)N(C)[C@@H](CCCC)C(=O)N[C@@H](CCCNC(=N)N)C(=O)N[C@H](C(=O)NCC(=O)O)CSCC(=O)N[C@@H](Cc2ccccc2)C(=O)N(C)[C@@H](C)C(=O)N[C@@H](CC(N)=O)C(=O)N2CCC[C@H]2C(=O)N[C@@H](Cc2cnc[nH]2)C(=O)N[C@@H](CC(C)C)C(=O)N(C)CC(=O)N[C@@H](Cc2c[nH]c3ccccc23)C(=O)N[C@@H](CO)C(=O)N[C@@H](Cc2c[nH]c3ccccc23)C(=O)N1C [Example 1076] ({CH2CO}-F[NMeA]NPHL[Sar]WSW[NMeNle][NMeNle]RCG-OH; thioether N-14)
> 74.3 nM,6.76 to 30.3 nM,CCCC[C@H]1C(=O)N(C)[C@@H](CCCC)C(=O)N[C@@H](CCCNC(=N)N)C(=O)N[C@H](C(=O)NCC(N)=O)CSCC(=O)N[C@@H](Cc2ccccc2)C(=O)N(C)[C@@H](C)C(=O)N[C@@H](CC(N)=O)C(=O)N2CCC[C@H]2C(=O)N[C@@H](CCCCN)C(=O)N[C@@H](CC(C)C)C(=O)N(C)CC(=O)N[C@@H](Cc2c[nH]c3ccccc23)C(=O)N[C@@H](CO)C(=O)N[C@@H](Cc2c[nH]c3ccccc23)C(=O)N1C [Example 1077] ({CH2CO}-F[NMeA]NPKL[Sar]WSW[NMeNle][NMeNle]RCG-NH2; thioether N-14)

# Reference: US9850283B2, “Macrocyclic inhibitors of the PD-1/PD-L1 and CD80(B7-1)/PD-L1 protein/protein interactions” (BRISTOL-MYERS SQUIBB COMPANY, priority 2013, dated 2017)
